# Measurements published in patent US20260174858A1, “TARGETING THE m6A MRNA DEMETHYLASE FTO” (University of Virginia Patent Foundation, priority 2022, published 2026).
# How the values were obtained:
# [1] = tested on: Human RPE cell line, ARPE-19; experiment: TGF-β1-induced fibrotic response in ARPE-19 (immunoblotting, immunofluorescence); format: cell-based; conditions: FTOi pretreatment at indicated concentrations, TGF-β1 10 ng/ml 12 hours
# Method: Cells and tissues were homogenized in RIPA buffer (R0278, Sigma) with protease and phosphatase inhibitors (A32959, Thermo Scientific). Protein concentration was determined with a Pierce BCA Protein Assay Kit (23225, Thermo Scientific). Equal quantities of protein boiled in LDS Sample Buffer (NP0007, Thermo Scientific) were resolved by Novex Tris-glycine gels (Invitrogen) and transferred onto LF PVDF membranes (1704274, Bio-Rad). The transferred membranes were blocked with Blocking Buffer (927-40000, LI-COR) and incubated with the following primary antibodies: anti-FTO pAb (AdipoGen Life Sciences, AG-25A-0089-C100, USA), anti-GAPDH mAb (Cell Signaling Technology, 97166), anti-F4/80 (Santa Cruz Biotechnology, sc-25830). The signal was visualized with species-specific secondary antibodies conjugated with IRDye and Odyssey® CLx Imaging System.
# [2] = In vivo retinal toxicity; conditions: FTO inhibition
# [3] = tested on: Human THP-1 cells; experiment: VEGFA release in human THP-1 cells (ELISA); format: cell-based; conditions: indicated dosage of FTOi, 24 hours or 48 hours; supernatant ELISA
# Method: (§1) Primary WT or mutant mouse bone marrow derived macrophages (BMDMs) were isolated as previously described (4). BMDMs were cultured in IMDM (Gibco) basal medium containing 10% fetal bovine serum (FBS), 30% L929 supernatants, nonessential amino acids, sodium pyruvate, 2-mercaptoethanol, and antibiotics. THP-1 cells were cultured in RPMI 1640 medium with 10% FBS and antibiotics. Human RPE cells were isolated as previously described and cultured in DMEM medium with 10% FBS and antibiotics. All cells were maintained at 37° C. in a 5% CO2 environment.
# The RPE-choroid complex was isolated from mouse eyes on day 3 after laser injury and treatment with FTO inhibitor or vehicle. Eye tissues were lysed by sonication with immunoprecipitation assay (RIPA) buffer (Sigma-Aldrich, R0278, USA) containing protease inhibitor (Sigma-Aldrich, 11836170001, USA), on ice for 15 minutes. The lysate was centrifuged at 20,000×g for 15 minutes at 4° C., and total protein in the lysates was quantified using the Thermo Scientific™ Pierce™ BCA™ Protein Assay (Fisher Scientific, PI23225, USA). VEGFA protein levels in the supernatants were measured by VEGF DuoSet ELISA (R&D Systems, DY493, USA), following the manufacturer's instructions. […] VEGFA levels in the supernatants were measured by mouse or human VEGF DuoSet ELISA (R&D Systems, DY493 or DY293B, USA), following the manufacturer's instructions.
# [4] = tested on: Vegfa mRNA; experiment: MeRIP-qPCR of m6A methylated Vegfa mRNA in BMDMs; format: cell-based, mouse; conditions: BMDMs treated with FTOi vs DMSO, MeRIP and qPCR
# Method: To validate m6A methylation of Vegfa mRNA and perturbations induced by FTOi treatment, we performed MeRIP-qPCR by following the EpiMark® N6-Methyladenosine Enrichment Kit protocol (New England Biolabs, E1610S, USA). Briefly, total RNA was extracted from mouse BMDMs treated with 5 μM of FTO inhibitor or vehicle for 24 hours by using TRIzol™ Reagent (Thermo Fisher Scientific, 15596018, USA). 100 μg of total RNA from each group was mixed with unmodified RNA (Negative control, NC). Next, 20 μg of these mixtures was incubated with m6A antibody (Cell Signaling Technology, D9D9W, USA) and then pulled down using Pierce™ Protein A/G Magnetic Beads (Thermo Fisher Scientific, 88802, USA) overnight. The enriched m6A positive RNAs were then eluted and purified by NucleoSpin RNA Clean-Up (Macherey-Nagel, 740948.25, USA), and the amounts of m6A-modified Vegfa mRNA or negative control RNAs were determined by reverse transcription and qPCR.
# [5] = tested on: Wild type C57BL/6J mice; experiment: Serum cytokines release in the LPS model of sepsis (ELISA); format: in vivo, mouse; conditions: FTOi 20 mg/kg i.p., 10 mg/kg LPS, serum at 10 hours after LPS
# Method: (§2) Secreted IL-6 in the BMDMs medium or serum IL-6, TNF-alpha, and IL-1alpha were detected by ELISA (Mouse IL-1 alpha/IL-1F1 DuoSet, R&D Systems, DY400; Mouse IL-6 DuoSet, R&D Systems, DY406; Mouse TNF-alpha DuoSet, R&D Systems, DY410) according to the manufacturer's instructions.
# (§3) To induced septic shock model, male or female C57BL/6 mice (6 to 10 weeks old) were primed with 10 mg/kg poly(I:C) via intraperitoneal injection. 6 hours later, primed mice were injected with 10 mg/kg LPS and monitored three time daily for a total 5 days. For FTO inhibitor treatment, Wild type C57BL/6J mice were pretreated with 20 mg/kg FB23-2 for 16 hours before sepsis induction. Next day, 20 mg/kg FB23-2 together with 10 mg/kg poly(I:C) were intraperitoneally injected, following with LPS challenge at 6 hours after poly(I:C) priming.
# [6] = tested on: Wild type C57BL/6J mice; experiment: LPS model of septic shock, survival; format: in vivo, mouse; conditions: FTOi 20 mg/kg i.p. 16 hours before, 10 mg/kg LPS challenge; log-rank p<0.05 vs vehicle
# Method: as §3
# [7] = tested on: Wild type BMDMs; experiment: LPS-induced IL-6 release on BMDMs (ELISA); format: cell-based, mouse; conditions: FB23-2 20 uM pre-treatment 1 hour, then 250 ng/ml LPS 6 hours, p<0.0001
# Method: as §1, §2
# [8] = tested on: human ARPE-19 cells; experiment: VEGFA release in human ARPE-19 cells; format: cell-based
# [9] = Cell viability under FTO inhibition; format: cell-based
smiles,measurement,setting,value
Cc1noc(C)c1-c1cc(Cl)c(Nc2ccccc2C(=O)NO)c(Cl)c1 [FB23-2],"Fibrotic response (αSMA, fibronectin)",[1],suppress the fibrotic response
same,In vivo retinal toxicity,[2],did not observe in vivo retinal toxicity
same,VEGFA release,[3],inhibits VEGFA release
same,Level of m6A methylated Vegfa mRNA,[4],increase the level of methylated (m6A) VEGFA mRNA
same,Level of m6A methylated Vegfa mRNA,[4]; listed as FTO inhibitor,significantly increased the abundance of m6A methylated Vegfa mRNA
same,"Serum cytokines release (IL-6, TNF-α, IL-1α)",[5],impairs serum cytokines release
same,Survival (mice death),[6],rescues the mice death
same,LPS-induced IL-6 release,[7],reduces LPS-induced IL-6 release
same,VEGFA release,[8],suppressed the VEGFA release
same,Adverse effects on cell viability,[9],minimal adverse effects on cell viability
